In patent US9040248B2, “Kits for detecting and monitoring endocrine disrupting chemicals (EDCs)” (The United States of America, as represented by the …, priority 2012, dated 2015):
Entries after “also recorded” stand apart in the source; their conditions may differ.

What was measured:
[1] = target: T1, GFP-AR (GFP-tagged androgen receptor, eGFP-hAR) (Homo sapiens, UniProt P10275); experiment: GFP-AR cytoplasm-to-nucleus translocation assay in 3108 cells; type: cell-based; details: 30 min treatment, hormones 100 nM or known concentrations, water samples 100×
T1 construct: expressed in transfected cells; host or cells: 3108 cells (derivative of the 3134 mouse mammary adenocarcinoma line), tetracycline-repressible promoter
Protocol: (§1) For biological testing, samples prepared as above were reconstituted in DMSO and diluted in growth media to a final 1,000× concentration from the original water volume while maintaining DMSO at <0.2%. Samples were added to cells for 30 minutes at 100× concentration or as indicated in the text.
Prior to imaging, cells were grown overnight on 22-mm^2 coverslips in DMEM medium containing 10% charcoal stripped serum (Hyclone, Logan, Utah) without tetracycline (to allow the expression of the GFP-GR or GFP-AR, respectively) at a density of 2×10^5 per 6-well plate. For the automated experiments conducted in 96 or 384 well plates, cell density was 10,000 or 2,500 cells per well, respectively. Cells were treated with vehicle control, hormones (100 nM) or water samples for 30 min at 37° C. at a final concentration of 100× for water samples (unless otherwise specified). […]
(§2) A Perkin Elmer Opera Image Screening System was used for fully automated collection of fluorescence images of cells. This system employed a 40× water immersion objective lens, laser illuminated Nipkow disk, and cooled CCD cameras to digitally capture high resolution confocal fluorescence micrographs (300 nm pixel size with 2×2 camera pixel binning). […] The algorithm also measured the mean GFP-GR or GFP-AR intensity in both compartments, and translocation was calculated as a ratio of these intensities. […]

[2] = target: T2, GFP-GR (GFP-tagged glucocorticoid receptor) (Rattus norvegicus, UniProt P06536, C656G/D98G); experiment: GFP-GR cytoplasm-to-nucleus translocation assay in 3617 cells; type: cell-based; details: 30 min treatment; water samples 100×
T2 construct: expressed in transfected cells; host or cells: 3617 cells (derivative of the 3134 mouse mammary adenocarcinoma line), tetracycline-repressible promoter
Protocol: as §1
Prior to imaging, cells were grown overnight on 22-mm^2 coverslips in DMEM medium containing 10% charcoal stripped serum (Hyclone, Logan, Utah) without tetracycline (to allow the expression of the GFP-GR or GFP-AR, respectively) at a density of 2×10^5 per 6-well plate. For the automated experiments conducted in 96 or 384 well plates, cell density was 10,000 or 2,500 cells per well, respectively. Cells were treated with vehicle control, hormones (100 nM) or water samples for 30 min at 37° C. at a final concentration of 100× for water samples (unless otherwise specified). Additional negative controls contained samples that tested the activity of the POCIS membranes themselves.
Upon treatment, cells were fixed with 4% paraformaldehyde in PBS for 15 minutes and washed three times with PBS. Cells on the 22-mm^2 coverslips were mounted in […]® mounting media with DAPI (Vector Laboratories, Inc.) and examined on a Leica DMRA microscope with Leica 100×1.3-N.A. oil immersion objective. Images were acquired in green (GFP-GR and GFP-AR) and UV (DAPI) channel with SenSys (Photometrics) camera with KAF1400 chip configured to collect 0.067-μm-diameter pixels. […]
as §2

| SMILES | GFP-AR nuclear translocation (in words) [1] | GFP-AR nuclear translocation (in words) ([1]; listed as androst-4-en-3,6-dione) | GFP-GR nuclear translocation (in words) [2] |
| --- | --- | --- | --- |
| C[C@@]12CCC[C@H]1[C@@H]1CC(=O)C3=CC(=O)CC[C@]3(C)[C@H]1CC2 (single isomer, unassigned) [Androst-4-en-3,6-dione] | induced GFP-tagged androgen receptor (GFP-AR) translocation | translocated to the nucleus in concentration-dependent manner; also recorded: induces concentration-dependent translocation | did not induce GFP-GR translocation |
| CCNc1nc(Cl)nc(NC(C)C)n1 [atrazine] | – | – | did not induce GFP-GR translocation |
| C[C@]12C[C@H](O)[C@H]3[C@@H](CCC4=CC(=O)CC[C@@]43C)[C@@H]1CC[C@@H]2C(=O)CO [corticosterone] | – | – | translocates to the nucleus in a concentration-dependent manner |
